According to patent publication US20240092758A1, “IMIDAZOLO INDAZOLE COMPOUNDS AS JAK INHIBITORS” (Theravance Biopharma R&D IP, LLC, priority 2021, published 2024):

Legend:
JAK1 = JAK1 (Homo sapiens (Human), UniProt P23458); test: Biochemical JAK kinase assay (LanthaScreen), JAK1; settings: for Ki: read-out: JAK1 pKi (converted)
Procedure: (§1) A panel of four LanthaScreen JAK biochemical assays (JAK1, 2, 3 and Tyk2) were carried in a common kinase reaction buffer (50 mM HEPES, pH 7.5, 0.01% Brij-35, 10 mM MgCl2, and 1 mM EGTA). Recombinant GST-tagged JAK enzymes and a GFP-tagged STAT1 peptide substrate were obtained from Life Technologies.
(§2) Serially diluted compounds were pre-incubated with each of the four JAK enzymes and the substrate in white 384-well microplates (Corning) at ambient temperature for 1 h. ATP was subsequently added to initiate the kinase reactions in 10 μL total volume, with 1% DMSO. The final enzyme concentrations for JAK1, 2, 3 and Tyk2 are 4.2 nM, 0.1 nM, 1 nM, and 0.25 nM respectively; the corresponding Km ATP concentrations used are 25 μM, 3 μM, 1.6 μM, and 10 μM; while the substrate concentration is 200 nM for all four assays. Kinase reactions were allowed to proceed for 1 hour at ambient temperature before a 10 μL preparation of EDTA (10 mM final concentration) and Tb-anti-pSTAT1 (pTyr701) antibody (Life Technologies, 2 nM final concentration) in TR-FRET dilution buffer (Life Technologies) was added. The plates were allowed to incubate at ambient temperature for 1 h before being read on the EnVision reader (Perkin Elmer). Emission ratio signals (520 nm/495 nm) were recorded and utilized to calculate the percent inhibition values based on DMSO and background controls.
(§3) For dose-response analysis, percent inhibition data were plotted vs. compound concentrations, and IC50 values were determined from a 4-parameter robust fit model with the Prism software (GraphPad Software). Results were expressed as pIC50 (negative logarithm of IC50) and subsequently converted to pKi (negative logarithm of dissociation constant, Ki) using the Cheng-Prusoff equation.
(§4) Test compounds having a lower Ki value or higher pKi value in the four JAK assays show greater inhibition of JAK activity.

JAK2 = JAK2 (Homo sapiens (Human), UniProt O60674); test: Biochemical JAK kinase assay (LanthaScreen), JAK2; settings: for Ki: read-out: JAK2 pKi (converted)
Procedure: as §1, §2, §3, §4

[1] = system: IL-13 induced STAT6 phosphorylation in BEAS-2B human lung epithelial cells; test: Cellular JAKI potency assay (BEAS-2B); type: cell-based; settings: Homo sapiens, BEAS-2B, BEAS-2B cells, read-out: BEAS2B pIC50 (converted)
Procedure: The JAKI cellular potency assay was carried out by measuring inhibition of interleukin-13 (IL-13, R&D Systems) induced STAT6 phosphorylation in BEAS-2B human lung epithelial cells (ATCC). BEAS-2B cells were grown at 37° C. in a 5% CO2 humidified incubator in 50% DMEM/50% F-12 medium (Life Technologies) supplemented with 10% FBS (Hyclone), 100 U/mL penicillin, 100 μg/mL streptomycin (Life Technologies), and 2 mM GlutaMAX (Life Technologies). On day 1 of the assay, cells were seeded at a 7,500 cells/well density in white poly-D-lysine-coated 384-well plates (Corning) with 25 μL medium and were allowed to adhere overnight in the incubator. On day 2 of the assay, the medium was removed and replaced with 12 μL of assay buffer (Hank's Balanced Salt Solution/HBSS, 25 mM HEPES, and 1 mg/ml bovine serum albumin/BSA) containing dose-responses of test compounds. Compounds were serially diluted in DMSO and then diluted another 1000-fold in media to bring the final DMSO concentration to 0.1%. Cells were incubated with test compounds at 37° C. for 1 h and followed by the addition of 12 μl of pre-warmed IL-13 (80 ng/mL in assay buffer) for stimulation. After incubating at 37° C. for 30 min, the assay buffer (containing compound and IL-13) was removed, and 10 μL of cell lysis buffer (25 mM HEPES, 0.1% SDS, 1% NP-40, 5 mM MgCl2, 1.3 mM EDTA, 1 mM EGTA, supplemented with Complete Ultra mini protease inhibitors and PhosSTOP from Roche Diagnostics). The plates were shaken at ambient temperature for 30 min before the addition of detection reagents. Levels of pSTAT6 were measured using the AlphaLISA SureFire Ultra pSTAT6 (Tyr641) assay kit from PerkinElmer. For dose-response analysis, percent inhibition data were plotted vs. compound concentrations, and IC50 values were determined from a 4-parameter robust fit model with the Graphpad Prism software. Results are expressed as the negative logarithm of the IC50 value, pIC50.
Test compounds having a lower IC50 value or higher pIC50 value in this assay show greater inhibition of IL-13 induced STAT6 phosphorylation.

Sequence of JAK2 (O60674 whole entry): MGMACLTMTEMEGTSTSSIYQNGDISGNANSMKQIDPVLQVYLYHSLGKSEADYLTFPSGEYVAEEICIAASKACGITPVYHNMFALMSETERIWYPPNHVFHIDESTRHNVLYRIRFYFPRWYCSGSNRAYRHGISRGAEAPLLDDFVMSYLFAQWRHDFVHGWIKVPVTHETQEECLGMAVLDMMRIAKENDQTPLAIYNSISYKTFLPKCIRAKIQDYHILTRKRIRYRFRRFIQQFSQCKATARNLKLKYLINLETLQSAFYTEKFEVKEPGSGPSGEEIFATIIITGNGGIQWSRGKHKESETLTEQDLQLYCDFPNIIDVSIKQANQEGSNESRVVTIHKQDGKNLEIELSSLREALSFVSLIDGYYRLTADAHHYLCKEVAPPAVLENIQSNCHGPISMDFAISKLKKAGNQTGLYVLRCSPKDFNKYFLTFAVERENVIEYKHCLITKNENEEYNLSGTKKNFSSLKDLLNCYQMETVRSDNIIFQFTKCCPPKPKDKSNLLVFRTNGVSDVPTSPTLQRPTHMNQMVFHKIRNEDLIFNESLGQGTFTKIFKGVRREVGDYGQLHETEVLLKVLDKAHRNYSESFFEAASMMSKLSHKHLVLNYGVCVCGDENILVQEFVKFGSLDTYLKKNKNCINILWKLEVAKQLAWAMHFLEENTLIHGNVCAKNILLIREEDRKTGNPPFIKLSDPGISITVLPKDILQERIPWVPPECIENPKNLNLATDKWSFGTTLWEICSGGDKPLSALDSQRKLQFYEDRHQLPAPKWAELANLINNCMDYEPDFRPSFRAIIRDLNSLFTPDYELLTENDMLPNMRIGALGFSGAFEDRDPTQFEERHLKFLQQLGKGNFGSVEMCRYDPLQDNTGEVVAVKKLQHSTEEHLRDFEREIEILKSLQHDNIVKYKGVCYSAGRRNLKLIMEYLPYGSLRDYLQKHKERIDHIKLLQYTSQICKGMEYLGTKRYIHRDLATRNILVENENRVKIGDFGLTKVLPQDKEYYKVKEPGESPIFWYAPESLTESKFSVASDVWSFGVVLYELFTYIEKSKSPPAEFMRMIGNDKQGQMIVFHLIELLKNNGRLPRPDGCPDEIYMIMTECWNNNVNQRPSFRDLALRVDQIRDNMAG
Sequence of JAK1 (P23458 whole entry): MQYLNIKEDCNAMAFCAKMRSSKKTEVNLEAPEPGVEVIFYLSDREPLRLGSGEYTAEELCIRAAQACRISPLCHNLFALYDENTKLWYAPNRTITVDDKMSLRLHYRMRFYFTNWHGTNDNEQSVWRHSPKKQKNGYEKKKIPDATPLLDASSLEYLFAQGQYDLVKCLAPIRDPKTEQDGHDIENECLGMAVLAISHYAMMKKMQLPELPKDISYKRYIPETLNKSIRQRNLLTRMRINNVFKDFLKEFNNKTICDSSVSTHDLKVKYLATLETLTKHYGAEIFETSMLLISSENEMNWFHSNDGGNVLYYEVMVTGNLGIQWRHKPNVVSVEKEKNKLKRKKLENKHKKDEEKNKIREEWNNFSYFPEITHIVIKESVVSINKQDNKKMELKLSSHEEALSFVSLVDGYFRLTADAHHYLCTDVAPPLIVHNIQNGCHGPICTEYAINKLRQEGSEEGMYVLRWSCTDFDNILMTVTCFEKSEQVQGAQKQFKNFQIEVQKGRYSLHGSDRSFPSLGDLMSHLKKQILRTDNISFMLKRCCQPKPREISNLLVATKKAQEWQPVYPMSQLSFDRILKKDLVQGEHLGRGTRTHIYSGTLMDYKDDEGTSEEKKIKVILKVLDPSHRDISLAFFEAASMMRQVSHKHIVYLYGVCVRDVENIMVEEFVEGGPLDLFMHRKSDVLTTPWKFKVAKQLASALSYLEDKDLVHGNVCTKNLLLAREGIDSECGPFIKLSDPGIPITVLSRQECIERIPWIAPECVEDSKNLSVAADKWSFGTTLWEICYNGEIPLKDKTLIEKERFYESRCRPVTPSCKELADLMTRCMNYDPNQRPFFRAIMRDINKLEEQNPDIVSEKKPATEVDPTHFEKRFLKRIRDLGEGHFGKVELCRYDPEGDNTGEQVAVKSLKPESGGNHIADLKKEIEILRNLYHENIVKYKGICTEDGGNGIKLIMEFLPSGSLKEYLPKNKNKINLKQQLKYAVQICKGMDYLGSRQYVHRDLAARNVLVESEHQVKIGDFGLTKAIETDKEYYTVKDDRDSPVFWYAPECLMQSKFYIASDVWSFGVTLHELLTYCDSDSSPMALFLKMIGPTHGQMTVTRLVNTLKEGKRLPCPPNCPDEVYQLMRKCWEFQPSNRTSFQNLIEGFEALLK

Compound | Ki (JAK1) [nM] | Ki (JAK2) [nM] | IC50 [1] [nM] | JAK2 pKi (JAK2) | JAK1 pKi (JAK1)
CCc1cc(O)ccc1-c1ccc2c(-c3nc(C4=C[C@@H](CO)N(C)C4)c[nH]3)n[nH]c2c1F [Example 344] | 0.1 to 1 | 0.1 to 1 | 10 to 31.6 | – | –
CCc1cc(O)ccc1-c1ccc2c(-c3nc(C4=CCCN(C(=O)NC)C4)c[nH]3)n[nH]c2c1 [Example 162] | 0.1 to 1 | 0.1 to 1 | 31.6 to 100 | – | –
CCc1cc(O)ccc1-c1ccc2c(-c3nc(C4=CCN(C5CCNC5=O)C4)c[nH]3)n[nH]c2c1F (stereo not drawn) [Example 98] | 0.1 to 1 | – | 31.6 to 100 | A (A represents a pKi value ≥10 (Ki≤0.1 nM)) | –
CCc1cc(O)ccc1-c1ccc2c(-c3nc(C4=CCN(CCC(C)(C)O)CC4)c[nH]3)n[nH]c2c1 [Example 35] | – | – | 3.16 to 10 | A (A represents a pKi value ≥10 (Ki≤0.1 nM)) | A (A represents a pKi value ≥10 (Ki≤0.1 nM))
CCc1cc(O)ccc1-c1ccc2c(-c3nc(C4=CCNCC4C)c[nH]3)n[nH]c2c1F (stereo not drawn) [Example 324] | 0.1 to 1 | 0.1 to 1 | 10 to 31.6 | – | –
CCc1cc(O)ccc1-c1ccc2c(-c3nc(C4=CCN(C(=O)CN(C)C)C4)c[nH]3)n[nH]c2c1F [Example 333] | 0.1 to 1 | – | 10 to 31.6 | A (A represents a pKi value ≥10 (Ki≤0.1 nM)) | –
CCc1cc(O)ccc1-c1ccc2c(-c3nc(C4=CCN(CCNS(=O)(=O)C(C)C)CC4)c[nH]3)n[nH]c2c1 [Example 101] | 0.1 to 1 | – | 10 to 31.6 | A (A represents a pKi value ≥10 (Ki≤0.1 nM)) | –
CCc1cc(O)ccc1-c1ccc2c(-c3nc(C4=CCN(CCS(C)(=O)=O)CC4)c[nH]3)n[nH]c2c1 [Example 77] | 0.1 to 1 | – | 10 to 31.6 | A (A represents a pKi value ≥10 (Ki≤0.1 nM)) | –
CCc1cc(O)ccc1-c1ccc2c(-c3nc(C4=CCN(CCS(=O)(=O)NC)CC4)c[nH]3)n[nH]c2c1F [Example 85] | 0.1 to 1 | 0.1 to 1 | 31.6 to 100 | – | –
CCc1cc(O)ccc1-c1ccc2c(-c3nc(C4=CCCN(CCN5CCNC5=O)C4)c[nH]3)n[nH]c2c1F [Example 125] | 0.1 to 1 | 0.1 to 1 | 31.6 to 100 | – | –
CCOC(=O)C1=C(c2c[nH]c(-c3n[nH]c4c(F)c(-c5ccc(O)cc5CC)ccc34)n2)CNCC1 [Example 301] | – | 0.1 to 1 | 10 to 31.6 | – | A (A represents a pKi value ≥10 (Ki≤0.1 nM))
CCc1cc(O)ccc1-c1ccc2c(-c3nc(C4=C[C@@H](CC(=O)N(C)C)NC4)c[nH]3)n[nH]c2c1F [Example 256] | – | – | 31.6 to 100 | A (A represents a pKi value ≥10 (Ki≤0.1 nM)) | A (A represents a pKi value ≥10 (Ki≤0.1 nM))
CCc1cc(O)ccc1-c1ccc2c(-c3nc(C4=CCN(C(=O)NC)CC4)c[nH]3)n[nH]c2c1 [Example 150] | 0.1 to 1 | 0.1 to 1 | 10 to 31.6 | – | –
CCc1cc(O)ccc1-c1ccc2c(-c3nc(C4=CCCN(CCc5ccccc5)C4)c[nH]3)n[nH]c2c1 [Example 139] | 1 to 10 | 0.1 to 1 | 100 to 316 | – | –
CCc1cc(O)ccc1-c1ccc2c(-c3nc(C4=CCN(C5CCOCC5)C4)c[nH]3)n[nH]c2c1 [Example 72] | – | – | 3.16 to 10 | A (A represents a pKi value ≥10 (Ki≤0.1 nM)) | A (A represents a pKi value ≥10 (Ki≤0.1 nM))
CCc1cc(O)ccc1-c1ccc2c(-c3nc(C4=CCN(S(C)(=O)=O)C4)c[nH]3)n[nH]c2c1F [Example 172] | 1 to 10 | 0.1 to 1 | 10 to 31.6 | – | –
CCc1cc(O)c(F)cc1-c1ccc2c(-c3nc(C4=CCNC4)c[nH]3)n[nH]c2c1 [Example 285] | – | – | 3.16 to 10 | A (A represents a pKi value ≥10 (Ki≤0.1 nM)) | A (A represents a pKi value ≥10 (Ki≤0.1 nM))
CCc1cc(O)ccc1-c1ccc2c(-c3nc(C4=CCN(C(=O)OC)CC4)c[nH]3)n[nH]c2c1 [Example 149] | 1 to 10 | 1 to 10 | 31.6 to 100 | – | –
CCc1cc(O)ccc1-c1ccc2c(-c3nc(C4=CCNC5(CC5)C4)c[nH]3)n[nH]c2c1F [Example 352] | 0.1 to 1 | 0.1 to 1 | 31.6 to 100 | – | –
CCc1cc(O)ccc1-c1ccc2c(-c3nc(C4=CCN(CC5COC5)C4)c[nH]3)n[nH]c2c1F [Example 74] | 0.1 to 1 | – | 10 to 31.6 | A (A represents a pKi value ≥10 (Ki≤0.1 nM)) | –
CCc1cc(O)ccc1-c1ccc2c(-c3nc(C4=C(C)CCNC4)c[nH]3)n[nH]c2c1 [Example 232] | 0.1 to 1 | 0.1 to 1 | 3.16 to 10 | – | –
CCc1cc(O)ccc1-c1ccc2c(-c3nc(C4=CCN(CCCO)C4)c[nH]3)n[nH]c2c1 [Example 297] | 0.1 to 1 | 0.1 to 1 | 10 to 31.6 | – | –
CCc1cc(O)ccc1-c1ccc2c(-c3nc(C4=CCN(CCCNS(=O)(=O)C(C)C)CC4)c[nH]3)n[nH]c2c1 [Example 105] | – | – | 10 to 31.6 | A (A represents a pKi value ≥10 (Ki≤0.1 nM)) | A (A represents a pKi value ≥10 (Ki≤0.1 nM))
CCc1cc(O)ccc1-c1ccc2c(-c3nc(C4=CCC5(CNC5)OC4)c[nH]3)n[nH]c2c1 [Example 229] | 0.1 to 1 | – | 31.6 to 100 | A (A represents a pKi value ≥10 (Ki≤0.1 nM)) | –
CCc1cc(O)ccc1-c1ccc2c(-c3nc(C4=CCNC(C)(C)C4)c[nH]3)n[nH]c2c1F [Example 377] | 0.1 to 1 | 0.1 to 1 | 31.6 to 100 | – | –
CCc1cc(O)ccc1-c1ccc2c(-c3nc(C4=CCN[C@@H](C)C4)c[nH]3)n[nH]c2c1F [Example 311] | 0.1 to 1 | 0.1 to 1 | 10 to 31.6 | – | –
CCc1cc(O)ccc1-c1ccc2c(-c3nc(C4=CCNC4C)c[nH]3)n[nH]c2c1F (stereo not drawn) [Example 313] | 0.1 to 1 | 0.1 to 1 | 10 to 31.6 | – | –
CCc1cc(O)ccc1-c1ccc2c(-c3nc(C4=CCN([C@H]5CC[C@@H](O)CC5)C4)c[nH]3)n[nH]c2c1 [Example 287] | – | – | 3.16 to 10 | A (A represents a pKi value ≥10 (Ki≤0.1 nM)) | A (A represents a pKi value ≥10 (Ki≤0.1 nM))
